# Experimental data taken from patent US4670418A, “Method of using somatostatin as an analgesic or an anesthetic” (CuraMED Pharma GmbH, priority 1984, dated 1987).
# Legend:
# [1] = test system: Cancer patients suffering from intolerable pain; test: intraspinal and intraventricular injection and infusion in cancer patients with intolerable pain; format: in vivo; conditions: humans, intraspinal or intraventricular route
# Procedure: Cancer patients suffering from intolerable pain in the final stage of post-operative pain were given 250 μg of somatostatin as an injection and thereafter 10 to 50 μg/hour of somatostatin as an infusion, in part via the intraspinal route and in part via the intraventricular route.
# [2] = in vivo; cited from earlier work
# [3] = penetration of the dura into the liquor upon peridural application; format: in vivo
# [4] = test system: rats; conditions: intracerebroventricular infusion; cited from earlier work
# [5] = test system: humans; test: preliminary experiments with humans, peridural application; format: in vivo
# [6] = intradural or intraspinal injections or infusions, anesthetic effect; format: in vivo
# [7] = test system: dogs; test: investigation with dogs, analgesia test according to Cohen (heated plate); format: in vivo
compound,measurement,setting,value
C[C@H](N)C(=O)NCC(=O)N[C@H]1CSSC[C@@H](C(=O)O)NC(=O)[C@H](CO)NC(=O)[C@H]([C@@H](C)O)NC(=O)[C@H](Cc2ccccc2)NC(=O)[C@H]([C@@H](C)O)NC(=O)[C@H](CCCCN)NC(=O)[C@H](Cc2c[nH]c3ccccc23)NC(=O)[C@H](Cc2ccccc2)NC(=O)[C@H](Cc2ccccc2)NC(=O)[C@H](CC(N)=O)NC(=O)[C@H](CCCCN)NC1=O [somatostatin],analgesia,[1]; 250 μg injection then 10 to 50 μg/hour infusion,"marked analgesia, comparable to that of morphine"
same,tolerability of the infusions,[1]; 10 to 50 μg/hour infusion,tolerated without any occurring side-effects for a period of over two weeks
same,half-life,[2],2 to 4 min
same,penetration of the dura,[3],capable of rapidly (and to a high degree) penetrating the dura
same,analgesic effect,[4],a short-term analgesic effect was found
same,analgesic effectiveness,[5]; peridural application of 125 μg,analgesically effective
same,analgesic effectiveness,[5]; peridural application of 250 μg,analgesically effective
same,anesthetic effects,[6],have anesthetic effects
same,signs of pain,[7]; dog having a large decubitus,showed no signs of pain
same,duration of analgesic activity,[7]; dogs,maintained for several weeks
same,sedation and behavior,[7]; dogs,had not been put under sedation and showed a balanced behavior
same,side effects,[7]; dogs,No side effects were apparent
same,period for which heated plate was tolerated,"[7]; dogs, all animals, heated plate of 60° C., analgesia test according to Cohen",5 s
